Results reported in patent publication US11078216B2, “Bisaryl amides as NRF2 activators” (GLAXOSMITHKLINE INTELLECTUAL PROPERTY DEVELOPMENT LIMITED, priority 2016, dated 2021).

Tested on: NRF2 (NQO1 activity as marker for NRF2 activation), BEAS-2B cells
Assay: BEAS-2B NQO1 MTT Assay
Assay type: cell-based
Conditions: Homo sapiens, EC50 of NQO1 specific activity induction, 48 hours incubation, read-out: EC50
Source text: NAD(P)H:quinone oxidoreductase 1 (NQO1), also called DT diaphorase, is a homodimeric FAD-containing enzyme that catalyzes obligatory NAD(P)H-dependent two-electron reductions of quinones and protects cells against the toxic and neoplastic effects of free radicals and reactive oxygen species arising from one-electron reductions. The transcription of NQO1 is finely regulated by NRF2, and thus NQO1 activity is a good marker for NRF2 activation. On day one, frozen BEAS-2B cells (ATCC) are thawed in a water bath, counted, and re-suspended at a concentration of 250,000 cells/mL. Fifty microliters of cells are plated in 384 well black clear-bottomed plates. Plates are incubated at 37° C., 5% CO2 overnight. On day two, plates are centrifuged and 50 nL of compound or controls are added to the cells. Plates are then incubated at 37° C., 5% CO2 for 48 hours. On day four, medium is aspirated from the plate and crude cell lysates are made by adding 13 uL of 1× Cell Signaling Technologies lysis buffer with 1 Complete, Mini, EDTA-free Protease Inhibitor Tablet (Roche) for each 10 mL of lysis buffer. After lysis plates are incubated for 20 minutes at room temperature. Two microliters of lysate are removed for use in Cell Titer Glo assay (Promega) and MTT cocktail is prepared (Prochaska et. al. 1998) for measurement of NQO1 activity. Fifty microliters of MTT cocktail is added to each well, plate is centrifuged, and analyzed on an Envision plate reader (Perkin Elmer) using Absorbance 570 nm label for 30 minutes. Product formation is measured kinetically and the EC50 of NQO1 specific activity induction is calculated by plotting the change in absorbance (Delta OD/min) versus the log of compound concentration followed by 3-parameter fitting.
EC50s<1 nM (+++++), EC50s 1 nM-10 nM (++++), EC50s 10 nM-100 nM (+++), EC50s 100 nM-1 uM (++), EC50s 1-10 uM (+), EC50s>10 uM (−), or were not determined (ND).

Row | Compound | EC50
1 | CC[C@@H]1CN(Cc2cc(C(CC(=O)Nc3cccnc3)c3ccc(C#N)cc3C)ccc2C)S(=O)(=O)c2cccnc2O1 (single isomer, unassigned) [Example 69] | 100 to 1000 nM
2 | CC[C@@H]1CN(Cc2cc([C@H](CC(=O)Nc3cccnc3)c3ccc4c(nnn4CC)c3C)ccc2C)S(=O)(=O)c2cccnc2O1 [Example 1, (S)-3-(3-(((R)-4-Ethyl-1,1-dioxido-3,4-dihydro-2H-pyrido[2,3-b][1,4,5]oxathiazepin-2-yl)methyl)-4-methylphenyl)-3-(1-ethyl-4-methyl-1H-benzo[d][1,2,3]triazol-5-yl)-N-(pyridin-3-yl)propanamide] | 10 to 100 nM
3 | CC[C@@H]1CN(Cc2cc([C@H](CC(=O)Nc3cnsc3)c3ccc4c(nnn4CC)c3C)ccc2C)S(=O)(=O)c2cccnc2O1 [Example 2, (S)-3-(3-(((R)-4-Ethyl-1,1-dioxido-3,4-dihydro-2H-pyrido[2,3-b][1,4,5]oxathiazepin-2-yl)methyl)-4-methylphenyl)-3-(1-ethyl-4-methyl-1H-benzo[d][1,2,3]triazol-5-yl)-N-(isothiazol-4-yl)propanamide] | 10 to 100 nM
4 | CC[C@@H]1CN(Cc2cc([C@H](CC(=O)NCc3ncco3)c3ccc4c(nnn4CC)c3C)ccc2C)S(=O)(=O)c2cccnc2O1 [Example 3, (S)-3-(3-(((R)-4-Ethyl-1,1-dioxido-3,4-dihydro-2H-pyrido[2,3-b][1,4,5]oxathiazepin-2-yl)methyl)-4-methylphenyl)-3-(1-ethyl-4-methyl-1H-benzo[d][1,2,3]triazol-5-yl)-N-(oxazol-2-ylmethyl)propanamide] | 100 to 1000 nM
5 | CC[C@@H]1CN(Cc2cc([C@H](CC(=O)NC3COC3)c3ccc4c(nnn4CC)c3C)ccc2C)S(=O)(=O)c2cccnc2O1 [Example 4, (S)-3-(3-(((R)-4-Ethyl-1,1-dioxido-3,4-dihydro-2H-pyrido[2,3-b][1,4,5]oxathiazepin-2-yl)methyl)-4-methylphenyl)-3-(1-ethyl-4-methyl-1H-benzo[d][1,2,3]triazol-5-yl)-N-(oxetan-3-yl)propanamide] | 100 to 1000 nM
6 | CC[C@@H]1CN(Cc2cc([C@H](CC(=O)NC3CCS(=O)(=O)C3)c3ccc4c(nnn4CC)c3C)ccc2C)S(=O)(=O)c2cccnc2O1 (stereo partly drawn) [Example 5, (3S)-N-(1,1-Dioxidotetrahydrothiophen-3-yl)-3-(3-(((R)-4-ethyl-1,1-dioxido-3,4-dihydro-2H-pyrido[2,3-b][1,4,5]oxathiazepin-2-yl)methyl)-4-methylphenyl)-3-(1-ethyl-4-methyl-1H-benzo[d][1,2,3]triazol-5-yl)propanamide] | 100 to 1000 nM
7 | CC[C@@H]1CN(Cc2cc([C@H](CC(=O)n3ccc(N)n3)c3ccc4c(nnn4CC)c3C)ccc2C)S(=O)(=O)c2cccnc2O1 [Example 6, (S)-1-(3-Amino-1H-pyrazol-1-yl)-3-(3-(((R)-4-ethyl-1,1-dioxido-3,4-dihydro-2H-pyrido[2,3-b][1,4,5]oxathiazepin-2-yl)methyl)-4-methylphenyl)-3-(1-ethyl-4-methyl-1H-benzo[d][1,2,3]triazol-5-yl)propan-1-one] | 1 to 10 nM
8 | CC[C@@H]1CN(Cc2cc([C@H](CC(=O)n3nccc3N)c3ccc4c(nnn4CC)c3C)ccc2C)S(=O)(=O)c2cccnc2O1 [Example 7, (S)-1-(5-Amino-1H-pyrazol-1-yl)-3-(3-(((R)-4-ethyl-1,1-dioxido-3,4-dihydro-2H-pyrido[2,3-b][1,4,5]oxathiazepin-2-yl)methyl)-4-methylphenyl)-3-(1-ethyl-4-methyl-1H-benzo[d][1,2,3]triazol-5-yl)propan-1-one] | 1 to 10 nM
9 | CC[C@@H]1CN(Cc2cc([C@H](CC(=O)NCc3ncc[nH]3)c3ccc4c(nnn4CC)c3C)ccc2C)S(=O)(=O)c2cccnc2O1 [Example 8, (S)-N-((1H-Imidazol-2-yl)methyl)-3-(3-(((R)-4-ethyl-1,1-dioxido-3,4-dihydro-2H-pyrido[2,3-b][1,4,5]oxathiazepin-2-yl)methyl)-4-methylphenyl)-3-(1-ethyl-4-methyl-1H-benzo[d][1,2,3]triazol-5-yl)propanamide] | 100 to 1000 nM
